Data as given in ChEMBL document CHEMBL1128904, “Synthesis and biological activity of 1-alkylcarbonylmethyl analogues of YM022” (Bioorg Med Chem Lett, 1996).
Active and inactive are the calls of the source. The calls are words filed in the database; no cut-off is given here.

Experiments:
Rattus norvegicus [1] = experiment: Compound was evaluated for in vivo inhibition of pentagastrin induced gastric acid secretion in rats after iv administration at dose of 0.03 umol/kg; type: functional; conditions: Stomach
[2] = target: T1, Gastrin/cholecystokinin type B receptor (Rattus norvegicus, UniProt P30553); experiment: Ability to displace [125I]CCK-8 from gastrin/Cholecystokinin type B receptor from rat brain; type: tissue-based
T1 sequence (P30553 whole entry): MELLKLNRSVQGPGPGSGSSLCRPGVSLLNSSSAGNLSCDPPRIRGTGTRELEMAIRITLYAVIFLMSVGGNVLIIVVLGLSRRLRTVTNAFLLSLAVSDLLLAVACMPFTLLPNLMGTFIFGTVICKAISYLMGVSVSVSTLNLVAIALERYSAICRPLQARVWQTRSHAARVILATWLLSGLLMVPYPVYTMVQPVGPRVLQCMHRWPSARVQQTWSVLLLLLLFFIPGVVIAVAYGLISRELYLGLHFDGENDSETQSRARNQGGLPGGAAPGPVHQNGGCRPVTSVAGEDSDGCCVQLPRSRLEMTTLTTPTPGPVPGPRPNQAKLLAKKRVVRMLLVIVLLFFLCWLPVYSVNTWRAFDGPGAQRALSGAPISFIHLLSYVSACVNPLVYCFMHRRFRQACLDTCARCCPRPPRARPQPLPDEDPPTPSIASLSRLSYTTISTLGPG

Rattus norvegicus [3] = experiment: Compound was evaluated for in vivo inhibition of pentagastrin induced gastric acid secretion in rats after iv administration at dose of 0.1 umol/kg; type: functional; conditions: Stomach
[4] = target: T2, Cholecystokinin receptor type A (Rattus norvegicus, UniProt P30551); experiment: Compound was evaluated for its ability to displace [3H]L-364718 from Cholecystokinin type A receptor from rat pancreas
T2 sequence (P30551 whole entry): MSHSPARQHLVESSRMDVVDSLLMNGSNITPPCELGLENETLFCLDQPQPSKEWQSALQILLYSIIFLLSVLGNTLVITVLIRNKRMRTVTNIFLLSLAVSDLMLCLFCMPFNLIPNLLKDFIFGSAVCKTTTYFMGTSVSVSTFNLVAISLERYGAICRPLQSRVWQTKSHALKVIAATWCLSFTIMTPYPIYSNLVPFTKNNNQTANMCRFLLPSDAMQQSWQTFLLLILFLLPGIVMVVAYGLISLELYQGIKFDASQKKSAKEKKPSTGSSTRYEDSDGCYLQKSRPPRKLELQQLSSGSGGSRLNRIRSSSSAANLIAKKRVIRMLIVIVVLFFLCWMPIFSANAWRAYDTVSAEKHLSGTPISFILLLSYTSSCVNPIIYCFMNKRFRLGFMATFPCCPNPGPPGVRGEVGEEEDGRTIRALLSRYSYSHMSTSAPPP

Rattus norvegicus [5] = experiment: Compound was evaluated for in vivo inhibition of pentagastrin induced gastric acid secretion in rats after id administration at dose of 0.3 umol/kg; type: functional; conditions: Stomach
Rattus norvegicus [6] = experiment: Compound was evaluated for in vivo inhibition of pentagastrin induced gastric acid secretion in rats by 50% after iv administration; type: functional; conditions: Stomach
Rattus norvegicus [7] = experiment: Compound was evaluated for in vivo inhibition of pentagastrin induced gastric acid secretion in rats after id administration at dose of 0.3 umol/kg; Not determined; type: functional, organism-based; conditions: Stomach
Rattus norvegicus [8] = experiment: Compound was evaluated for inhibition of pentagastrin induced gastric acid secretion in rats by 50% after iv administration; type: functional; conditions: Stomach
Rattus norvegicus [9] = experiment: Compound was evaluated for inhibition of pentagastrin induced gastric acid secretion in rats after id administration at dose of 0.3 umol/kg; type: functional; conditions: Stomach

Row | SMILES | inhibition in vivo at 0.03 µmol/kg (Rattus norvegicus [1]) [%] | IC50 [2] [pM] | other results
1 | Cc1cccc(NC(=O)NC2N=C(c3ccccc3)c3ccccc3N(CC(=O)C3CCCCCC3)C2=O)c1 (configuration not stated) | 53.5 | 2000 | –
2 | Cc1cccc(NC(=O)N[C@H]2N=C(c3ccccc3)c3ccccc3N(CC(=O)C3CCCC3)C2=O)c1 | – | 6100 | –
3 | Cc1cccc(NC(=O)NC2N=C(c3ccccc3)c3ccccc3N(CC(=O)C3(C)CCCCC3)C2=O)c1 (configuration not stated) | – | 380 | –
4 | Cc1cccc(NC(=O)NC2N=C(c3ccccc3)c3ccccc3N(CC(=O)C3(C)CC3)C2=O)c1 (configuration not stated) | – | 410 | –
5 | CCC(C)(C)C(=O)CN1C(=O)C(NC(=O)Nc2cccc(C)c2)N=C(c2ccccc2)c2ccccc21 (configuration not stated) | – | 570 | –
6 | Cc1cccc(NC(=O)NC2N=C(c3ccccc3)c3ccccc3N(CC(=O)C3CCC3)C2=O)c1 (configuration not stated) | – | 2370 | –
7 | Cc1cccc(NC(=O)NC2N=C(c3ccccc3)c3ccccc3N(CC(=O)C3(C)CCCC3)C2=O)c1 (configuration not stated) | – | 100 | –
8 | Cc1cccc(NC(=O)NC2N=C(c3ccccc3)c3ccccc3N(CC(=O)C3CCCCC3)C2=O)c1 (configuration not stated) | – | 400 | inhibition in vivo at 0.1 µmol/kg (Rattus norvegicus [3]): 67%
9 | Cc1cccc(NC(=O)NC2N=C(c3ccccc3)c3ccccc3N(CC(=O)CC3CCCCC3)C2=O)c1 (configuration not stated) | – | 280 | –
10 | Cc1cccc(NC(=O)N[C@@H]2N=C(c3ccccc3)c3ccccc3N(CC(=O)c3ccccc3C)C2=O)c1 | 80 | 110 | IC50 [4]: 146000 pM; inhibition in vivo at 0.3 µmol/kg (Rattus norvegicus [5]): 16%; ED50 (Rattus norvegicus [6]): 0.0078 µmol/kg
11 | Cc1cccc(NC(=O)NC2N=C(c3ccccc3)c3ccccc3N(CC(=O)C(C)C)C2=O)c1 (configuration not stated) | – | 2100 | –
12 | Cc1cccc(NC(=O)NC2N=C(c3ccccc3)c3ccccc3N(CC(=O)C(C)(C)C3CCCCC3)C2=O)c1 (configuration not stated) | – | 860 | –
13 | Cc1cccc(NC(=O)NC2N=C(c3ccccc3)c3ccccc3N(CC(=O)C(C)(C)C)C2=O)c1 (configuration not stated) | 76.7 | 520 | inhibition in vivo at 0.3 µmol/kg (Rattus norvegicus [5]): 80%; ED50 (Rattus norvegicus [6]): 0.0057 µmol/kg
14 | CCC(CC)C(=O)CN1C(=O)C(NC(=O)Nc2cccc(C)c2)N=C(c2ccccc2)c2ccccc21 (configuration not stated) | – | 1900 | –
15 | Cc1cccc(NC(=O)N[C@@H]2N=C(c3ccccc3)c3ccccc3N(C)C2=O)c1 [L-365260] | 0 | – | inhibition (Rattus norvegicus [7]): inactive; ED50 (Rattus norvegicus [6]): 4.23 µmol/kg
16 | Cc1cccc(NC(=O)NC2N=C(c3ccccc3)c3ccccc3N(CC(=O)C3CCCC3)C2=O)c1 (configuration not stated) | 65.2 | 230 | ED50 (Rattus norvegicus [8]): 0.0155 µmol/kg; inhibition in vivo at 0.3 µmol/kg (Rattus norvegicus [9]): 36%
17 | Cc1cccc(NC(=O)N[C@@H]2N=C(c3ccccc3)c3ccccc3N(CC(=O)C3CCCC3)C2=O)c1 | 79.9 | – | inhibition in vivo at 0.3 µmol/kg (Rattus norvegicus [5]): 31%
